In patent publication US20060014834A1, “Retinoid solutions and formulations made therefrom” (priority 2004, published 2006):

How the values were obtained:
Format in all cases: physicochemical
[1] = Elevated temperature stability of the actives in the oil in water emulsion of Example 10; conditions: Example 10 emulsion
Method: The elevated temperature stability of the actives in the oil in water emulsion of Example 10 was determined using techniques within the purview of those skilled in the art.

[2] = Elevated temperature stability of the actives in the liquid to powder suspension system of Example 13; conditions: Example 13 suspension
Method: The elevated temperature stability of the actives in the liquid to powder suspension system of Example 13 was determined using techniques known to those skilled in the art.

[3] = Solubility of tretinoin in ethanol, ester cosolvent or both
Method: The method of preparing the solution is not critical. Typically, the cosolvents are combined and the retinoid is added with stirring at room temperature until completely solubilized.
It has been experimentally determined that tretinoin is not soluble in ethanol in the ratios set forth in Examples A-D:
Isopropyl myristate (“IPM”) can be replaced with alkyl benzoate, isopropyl palmitate (“IPP”) or diisopropyl adipate to achieve the same results.
In Examples E-J where alcohol is not present, the retinoids are not soluble in the esters alone. This further confirms the present finding that retinoids can be solubilized in a small amount of alcohol by using specific cosolvents.
To effectively utilize the chamber in a chamber delivery system, one must balance the concentration of the actives in both chambers. This is necessary to achieve the final, active concentration, which is efficacious as well as compliant with the FDA. The present disclosure teaches how to prepare higher concentrations of tretinoin in solution for the small chamber by using lower concentrations of alcohol by means of cosolvents such a alkyl benzoate, isopropyl myristate, and isopropyl palmitate.

[4] = 25° C., 2 months, unit not given
[5] = 25° C., 3 months, unit not given
[6] = 30° C., 1 month, unit not given
[7] = 30° C., 2 months, unit not given
[8] = 30° C., 3 months, unit not given

active content, 25° C., 2 months [1, 4]: 0.0497
active content, 25° C., 3 months [1, 5]: 0.0497
active content, 30° C., 1 month [1, 6]: 0.0490
active content, 30° C., 2 months [1, 7]: 0.0490
active content, 30° C., 3 months [1, 8]: 0.0490
active content, Initial ([1]; initial): 0.0497%
active content, 25° C., 1 month ([2]; 25° C., 1 month, unit not given): 0.0508
active content, 25° C., 2 months [2, 4]: 0.0499
active content, 25° C., 3 months [2, 5]: 0.0497
active content, 30° C., 1 month [2, 6]: 0.051
active content, 30° C., 2 months [2, 7]: 0.0498
active content, 30° C., 3 months [2, 8]: 0.0488
active content, Initial ([2]; initial): 0.0517%
dissolution in alcohol using ester cosolvent ([3]; 1 gram of tretinoin in 3 grams of alcohol (33.3 percent solution) with alkyl benzoate, isopropyl myristate, isopropyl palmitate or other esters): completely dissolved
solubility in ethanol ([3]; ethanol alone, tretinoin:ethanol ratios of Examples A-D): not soluble
Compound: CC1=C(/C=C/C(C)=C/C=C/C(C)=C/C(=O)O)C(C)(C)CCC1 [Tretinoin]
solubility in ethanol plus cosolvent (clear solution) ([3]; same tretinoin:ethanol ratios, cosolvent IPM added (Examples 1-4)): completely dissolve into a clear solution
